What all share (assay type): in vivo
One data set concerns transplanted rice. Kind of data set: Test Example 1: effect on crop, application before weed generation under submerged conditions (Table 16, symbol a). The note with it: amount of applied herbicide 320 g/ha. In short, it runs like this:
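Submerged Wagner pots (alluvial soil, 4 cm water) sown with weed seeds and planted with 2.5-leaf rice seedlings; emulsifiable concentrate diluted in water applied to water surface on sowing day. Held in greenhouse at 25-30 °C; injury scored 0-5 by herbicidal rate after three weeks.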

Another data set has as its system directly sowed rice. Kind of data set: Test Example 3: effect on crop by foliage application, Wagner pot (Table 18, symbol b). The note with it: amount of applied herbicide 320 g/ha. In short, it runs like this:
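Plants were sown in alluvial soil held under 0.1–0.5 cm standing water and grown 14 days in a greenhouse at 25–30 °C. An emulsifiable formulation, water-diluted to the set dose, was then sprayed onto the foliage, and effects were scored three weeks later using previously defined criteria.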

The subject of another data set is corn. Kind of data set: Test Example 4: effect on crop by soil treatment (Table 19, symbol c). The note with it: amount of applied herbicide 320 g/ha. In short, it runs like this: (§1)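 Three weeks of greenhouse growth at 25° C. to 30° C. followed a uniform surface spray of water-diluted emulsion at a predetermined herbicide amount. Seeds had been sown beforehand under about 1.5 cm of sterilized diluvial soil. Grading followed criteria set out in an earlier test.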

The next data set deals with soybean. Kind of data set: Test Example 4: effect on crop by soil treatment (Table 19, symbol d). The settings on record: amount of applied herbicide 320 g/ha. In outline:
as §1

The test system of data set [1] is wheat. Kind of data set: Test Example 4: effect on crop by soil treatment (Table 19, symbol e). The note with it: amount of applied herbicide 320 g/ha. In short, it runs like this:
as §1

For the next data set, the system named is beet. Kind of data set: Test Example 4: effect on crop by soil treatment (Table 19, symbol f). The settings on record: amount of applied herbicide 320 g/ha. In short, it runs like this:
as §1

Data set [2] concerns rapeseed. Kind of data set: Test Example 4: effect on crop by soil treatment (Table 19, symbol g). The note with it: amount of applied herbicide 320 g/ha. In short, it runs like this:
as §1

The test system of data set [3] is wheat. Kind of data set: Test Example 5: effect on crop by foliage application, plastic box (Table 20, symbol e). The settings on record: 320 g/ha, three weeks after application. In short, it runs like this:
(§2)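 Plants sown in sterilized diluvial soil and grown 14 days in a greenhouse at 25° C to 30° C, then sprayed on the foliage with the compound's emulsion diluted in water to a predetermined herbicide amount. Injury to weeds and crops scored three weeks after application on a visual rating scale.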

For data set [4], the system named is rapeseed. Kind of data set: Test Example 5: effect on crop by foliage application, plastic box (Table 20, symbol g). The settings on record: 320 g/ha, three weeks after application. In outline: as §2

For `COc1ccc(-c2oc3ccc(F)cc3c2-c2c(O)c(C)nn(C)c2=O)cc1` [Compound No. 9-020, 4-(5-fluoro-2-(4-methoxyphenyl)benzofuran-3-yl)-5-hydroxy-2,6-dimethylpyridazin-3(2H)-one], the “Effect on crop, a: transplanted rice” value with transplanted rice is 0 (Herbicidal rate of 5% or less (almost no effect)). In the data set with directly sowed rice, the “Effect on crop b (directly sowed rice), foliage application” value is 0 (Herbicidal rate of 5% or less (almost no effect)). Besides, the “c: corn, effect on crop grade” value with corn is 0 (Herbicidal rate of 5% or less (almost no effect)). In the data set with soybean, the “d: soybean, effect on crop grade” value is 0 (Herbicidal rate of 5% or less (almost no effect)). In the data set on wheat [1], the “e: wheat, effect on crop grade” value was 2 (Herbicidal rate of 20% or more and less than 40%). In the data set on beet, the “f: beet, effect on crop grade” value is 4 (Herbicidal rate of 70% or more and less than 90%). Besides, in the data set with rapeseed [2], the “g: rapeseed, effect on crop grade” value is reported as 5 (Herbicidal rate of 90% or more (almost completely withered)). For the same compound, in the data set on wheat [3], the “effect on crop wheat (e)” value is 3 (Herbicidal rate of 40% or more and less than 70%). In addition, the “effect on crop rapeseed (g)” value in the data set on rapeseed [4] is recorded as 5 (Herbicidal rate of 90% or more (almost completely withered)).

The record behind these values is patent publication US20230085307A1, “PYRIDAZINONE COMPOUND AND HERBICIDE” (NISSAN CHEMICAL CORPORATION, priority 2019, published 2023).
